{"source": "ChEMBL document CHEMBL1201862", "about": "“PubChem BioAssay data set” (2004)", "assay_in_all_cases": "growth of human tumour cells (NCI), 48 h", "key": {"[1]": {"tested_on": "HCT-15"}, "[2]": {"tested_on": "MOLT-4"}, "[3]": {"tested_on": "SNB-19"}, "[4]": {"tested_on": "HT-29"}, "[5]": {"tested_on": "NCI/ADR-RES"}, "[6]": {"tested_on": "UO-31"}, "[7]": {"tested_on": "MCF7"}, "[8]": {"tested_on": "SK-MEL-2"}, "[9]": {"tested_on": "SK-MEL-28"}, "[10]": {"tested_on": "M14"}, "[11]": {"tested_on": "SF-268"}, "[12]": {"tested_on": "SK-MEL-5"}, "[13]": {"tested_on": "UACC-62"}, "[14]": {"tested_on": "ACHN"}, "[15]": {"tested_on": "OVCAR-8"}, "[16]": {"tested_on": "SR"}, "[17]": {"tested_on": "TK-10"}, "[18]": {"tested_on": "CAKI-1"}, "[19]": {"tested_on": "NCI-H23"}, "[20]": {"tested_on": "KM12"}, "[21]": {"tested_on": "U-251"}, "[22]": {"tested_on": "BT-549"}, "[23]": {"tested_on": "SF-539"}, "[24]": {"tested_on": "Hs-578T"}, "[25]": {"tested_on": "786-0"}, "[26]": {"tested_on": "NCI-H226"}, "[27]": {"tested_on": "MDA-MB-231"}, "[28]": {"tested_on": "SW-620"}, "[29]": {"tested_on": "HOP-92"}, "[30]": {"tested_on": "SK-OV-3"}, "[31]": {"tested_on": "MDA-MB-435"}, "[32]": {"tested_on": "NCI-H522"}, "[33]": {"tested_on": "K562"}, "[34]": {"tested_on": "A498"}, "[35]": {"tested_on": "PC-3"}, "[36]": {"tested_on": "EKVX"}, "[37]": {"tested_on": "MDA-N"}, "[38]": {"tested_on": "RPMI-8226"}, "[39]": {"tested_on": "SF-295"}, "[40]": {"tested_on": "RXF 393"}, "[41]": {"tested_on": "UACC-257"}, "[42]": {"tested_on": "HCT-116"}, "[43]": {"tested_on": "T47D"}, "[44]": {"tested_on": "HCC 2998"}, "[45]": {"tested_on": "A549"}, "[46]": {"tested_on": "LOX IMVI"}, "[47]": {"tested_on": "OVCAR-4"}, "[48]": {"tested_on": "COLO 205"}, "[49]": {"tested_on": "OVCAR-5"}, "[50]": {"tested_on": "SNB-75"}, "[51]": {"tested_on": "OVCAR-3"}, "[52]": {"tested_on": "NCI-H460"}, "[53]": {"tested_on": "DU-145"}, "[54]": {"tested_on": "Malme-3M"}, "[55]": {"tested_on": "IGROV-1"}, "[56]": {"tested_on": "HOP-62"}, "[57]": {"tested_on": "SN12C"}}, "note": "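Cultured in 96-well plates, cells were exposed to test compound for 48 hours across five concentrations. GI50: concentration for 50% inhibition of growth.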 Active and inactive are the calls of the source. Rule as the data show it: active = GI50 up to about 1.1 µM and inactive = higher."}
{"smiles": "CC(C)(C)c1ccc(CN2CCN(C(c3ccccc3)c3ccc(Cl)cc3)CC2)cc1", "note": "(configuration not stated)", "values": [{"measurement": "GI50", "setting": "[1]", "value": 29.9, "unit": "µM"}, {"measurement": "GI50", "setting": "[2]", "value": "44.6 µM (inactive)"}, {"measurement": "GI50", "setting": "[3]", "value": "> 100 µM (inactive)"}, {"measurement": "GI50", "setting": "[4]", "value": "20.3 µM (inactive)"}, {"measurement": "GI50", "setting": "[5]", "value": "> 100 µM (inactive)"}, {"measurement": "GI50", "setting": "[6]", "value": "63.5 µM (inactive)"}, {"measurement": "GI50", "setting": "[7]", "value": "40.6 µM (inactive)"}, {"measurement": "GI50", "setting": "[8]", "value": "31 µM (inactive)"}, {"measurement": "GI50", "setting": "[9]", "value": "65.5 µM (inactive)"}, {"measurement": "GI50", "setting": "[10]", "value": "33.4 µM (inactive)"}, {"measurement": "GI50", "setting": "[11]", "value": "77.6 µM (inactive)"}, {"measurement": "GI50", "setting": "[12]", "value": "27 µM (inactive)"}, {"measurement": "GI50", "setting": "[13]", "value": "> 100 µM (inactive)"}, {"measurement": "GI50", "setting": "[14]", "value": "68.5 µM (inactive)"}, {"measurement": "GI50", "setting": "[15]", "value": "> 100 µM (inactive)"}, {"measurement": "GI50", "setting": "[16]", "value": "62.2 µM (inactive)"}, {"measurement": "GI50", "setting": "[17]", "value": "> 100 µM (inactive)"}, {"measurement": "GI50", "setting": "[18]", "value": "> 100 µM (inactive)"}, {"measurement": "GI50", "setting": "[19]", "value": "83.6 µM (inactive)"}, {"measurement": "GI50", "setting": "[20]", "value": "78 µM (inactive)"}, {"measurement": "GI50", "setting": "[21]", "value": "45.1 µM (inactive)"}, {"measurement": "GI50", "setting": "[22]", "value": "> 100 µM (inactive)"}, {"measurement": "GI50", "setting": "[23]", "value": "30.3 µM (inactive)"}, {"measurement": "GI50", "setting": "[24]", "value": "> 100 µM (inactive)"}, {"measurement": "GI50", "setting": "[25]", "value": "42.4 µM (inactive)"}, {"measurement": "GI50", "setting": "[26]", "value": "22.1 µM (inactive)"}, {"measurement": "GI50", "setting": "[27]", "value": "> 100 µM (inactive)"}, {"measurement": "GI50", "setting": "[28]", "value": "> 100 µM (inactive)"}, {"measurement": "GI50", "setting": "[29]", "value": "> 100 µM (inactive)"}, {"measurement": "GI50", "setting": "[30]", "value": "> 100 µM (inactive)"}, {"measurement": "GI50", "setting": "[31]", "value": "57.9 µM (inactive)"}, {"measurement": "GI50", "setting": "[32]", "value": "23.4 µM (inactive)"}, {"measurement": "GI50", "setting": "[33]", "value": "36.6 µM (inactive)"}, {"measurement": "GI50", "setting": "[34]", "value": "> 100 µM (inactive)"}, {"measurement": "GI50", "setting": "[35]", "value": "57.3 µM (inactive)"}, {"measurement": "GI50", "setting": "[36]", "value": "32.1 µM (inactive)"}, {"measurement": "GI50", "setting": "[37]", "value": "49.4 µM (inactive)"}, {"measurement": "GI50", "setting": "[38]", "value": "33.3 µM (inactive)"}, {"measurement": "GI50", "setting": "[39]", "value": "37.9 µM (inactive)"}, {"measurement": "GI50", "setting": "[40]", "value": "24.4 µM (inactive)"}, {"measurement": "GI50", "setting": "[41]", "value": "35.9 µM (inactive)"}, {"measurement": "GI50", "setting": "[42]", "value": "25.7 µM (inactive)"}, {"measurement": "GI50", "setting": "[43]", "value": "24.2 µM (inactive)"}, {"measurement": "GI50", "setting": "[44]", "value": "31 µM (inactive)"}, {"measurement": "GI50", "setting": "[45]", "value": "32.5 µM (inactive)"}, {"measurement": "GI50", "setting": "[46]", "value": "34.4 µM (inactive)"}, {"measurement": "GI50", "setting": "[47]", "value": "> 100 µM (inactive)"}, {"measurement": "GI50", "setting": "[48]", "value": "38.8 µM (inactive)"}, {"measurement": "GI50", "setting": "[49]", "value": "60.1 µM (inactive)"}, {"measurement": "GI50", "setting": "[50]", "value": "> 100 µM (inactive)"}, {"measurement": "GI50", "setting": "[51]", "value": "58.7 µM (inactive)"}, {"measurement": "GI50", "setting": "[52]", "value": "95.1 µM (inactive)"}, {"measurement": "GI50", "setting": "[53]", "value": "> 100 µM (inactive)"}, {"measurement": "GI50", "setting": "[54]", "value": "45.6 µM (inactive)"}, {"measurement": "GI50", "setting": "[55]", "value": "> 100 µM (inactive)"}, {"measurement": "GI50", "setting": "[56]", "value": "> 100 µM (inactive)"}, {"measurement": "GI50", "setting": "[57]", "value": "> 100 µM (inactive)"}]}
